US11225475B2, “Substituted pyridines as inhibitors of histone deacetylase” (Alkermes, Inc., priority 2017, dated 2022)

How the values were obtained:
[1] = test system: human myeloid (CFU-GM) progenitors; assay: Myeloid CFU assay (human bone marrow clonogenic progenitors); format: cell-based; conditions: 14 days in culture
Description: (§1) Clonogenic progenitors of human erythroid (CFU-E, BFU-E), granulocyte-monocyte (CFU-GM) and multipotential (CFU-GEMM) lineages were assessed in a semi-solid methylcellulose-based media formulation containing rhIL-3 (10 ng/mL), rhGM-SCF (10 ng/mL), rhSCF (50 ng/mL) and Epo (3 U/mL).
(§2) Normal human bone marrow light density cells derived from normal bone marrow (NorCal Biologics, California) and qualified at ReachBio, were stored in the gaseous phase of liquid nitrogen (−152° C.) until required for the assay. On the day of the experiment, the cells were thawed rapidly, the contents of each vial was diluted in 10 mL of Iscove's modified Dulbecco's medium containing 10% fetal bovine serum (IMDM+10% FBS) and washed by centrifugation (approximately 1200 r.p.m. for 10 minutes, room temperature). The supernatant was discarded and the cell pellets resuspended in a known volume of IMDM+10% FBS. A cell count (3% glacial acetic acid) and viability assessment (trypan blue exclusion test) was performed for the bone marrow sample.
(§3) On the day of the experiment, the compounds were dissolved in DMSO to a stock concentration of 10 mM. Serial dilutions were prepared from the stock concentration to achieve concentrations of 2 and 0.4 mM. When added to the methylcellulose-based media at 1:1000 (v/v), the final test concentrations of 10, 2 and 0.4 μM were achieved. Additionally, 5-FU was evaluated at 1.0, 0.1 and 0.01 μg/mL.
(§4) Clonogenic progenitors of the human erythroid (CFU-E and BFU-E) and myeloid (CFU-GM) lineages were set up in the methylcellulose-based media formulations described above. All compounds were added to the medium to give the final desired concentrations ([…] 5-Fluorouracil (Sigma Aldrich) was used as a positive control for progenitor proliferation (inhibition of colony growth) and was introduced to the human bone marrow cultures at 1.0, 0.1, and 0.01 μg/mL. Solvent control cultures (containing no compound but 0.1% DMSO) as well as standard controls (containing no compound and no DMSO) were also initiated.
(§5) Human myeloid and erythroid progenitor assays were initiated at 2.0×10^4 cells per culture. Following 14 days in culture, myeloid and erythroid colonies were assessed microscopically and scored by trained personnel. The colonies were divided into the following categories based on size and morphology: CFU-E, BFU-E, CFU-GM and CFU-GEMM.
(§6) The mean±one standard deviation of three replicate cultures was calculated for progenitors of each category (CFU-E, BFU-E, etc.). Two-tailed t-tests were performed to assess if there was a difference in the number of colonies generated between solvent control and treated cultures. Due to the potential subjectivity of colony enumeration, a p value of less than 0.01 is deemed significant. To calculate the concentration of 50% inhibition of colony growth (IC50) for each compound, a dose response curve was generated plotting the log of the compound concentration versus the percentage of control colony growth using XLfit software (IDBS). The concentration of 50% inhibition of colony growth (IC50) was calculated based on the sigmoid curve fit using Dose-Response, One-Site Model formula: y=A+[(B−A)/(1+((C/x)^D))], where A=the initial value (baseline response), B=maximum response, C=center (drug concentration that provokes a response halfway between A and B) and D=slope of the curve at midpoint. Further, plots and additional dose response curves were generated using GraphPad Prism 7.0.
(§7) Erythroid (CFU-E and BFU-E), myeloid (CFU-GM) and multi-potential (CFU-GEMM) colony enumeration was performed by trained personnel. The distribution of colony types as well as general colony and cellular morphology was analyzed. For statistical analysis colony numbers in compound treated cultures were compared to the solvent control cultures. […] The experiment was used to evaluate the potential effect of test compounds on human erythroid and myeloid progenitor proliferation in a methylcellulose-based medium. […]

[2] = test system: human erythroid (CFU-E, BFU-E) progenitors; assay: Erythroid CFU assay (human bone marrow clonogenic progenitors); format: cell-based; conditions: for Erythroid % control remaining @ 10 uM dose: 14 days in culture
Description: as §1, §2, §3, §4, §5, §6, §7

HDAC2 [3] = target: T1, HDAC2 (Homo sapiens (Human), UniProt Q92769); assay: HDAC2 enzymatic assay (deacetylation of peptide substrate, Caliper LabChip); format: biochemical; conditions: reaction time 17 hours, 25° C.
Description: (§8) The following describes an assay protocol for measuring the deacetylation of a peptide substrate by the enzymes HDAC2 or HDAC1. Enzyme, substrate, and cofactors are combined in a well of a microtiter plate and incubated for […] at 25° C. At the end of the incubation, the reaction is quenched by the addition of an SDS-containing buffer. Substrate and product are separated and quantified electrophoretically using the microfluidic-based LabChip 3000 Drug Discovery System from Caliper Life Sciences. The peptide substrate used in this assay is FAM-TSRHK(AC)KL-CONH2 (FAM is carboxyfluorescein). Peptide should be >98% purity by Capillary Electrophoresis. • 1. To a well of a 384-well plate, add 5 μL of 2× enzyme buffer. Using Labcyte Echo 550, add 100 nl compound. Enzyme and compound may be pre-incubated at this time if desired. • 2. Add 5 μL of 2× substrate buffer. • 3. Incubate plate at 25° C. for 17 hours. • 4. Terminate reaction by adding 40 μL of 1.55× stop buffer. • 5. Create job on a Caliper LabChip® 3000 Drug Discovery System. • 6. Load the plate and start electrophoresis using blue laser (480 nm) for excitation and green CCD (520 nm) for detection (CCD2). Reaction time=17 hours; Reaction temperature=25° C.
(§9) 1% DMSO (from compound) 1 μM FAM-TSRHK(AC)KL-CONH2 5 nM HDAC Enzyme (specific activity may vary from lot-to-lot, and enzyme concentration may need to be adjusted to yield ˜10-20% conversion of substrate to product).
(§10) Substrate and product peptides present in each sample are separated electrophoretically using the LabChip 3000 capillary electrophoresis instrument. As substrate and product peptides are separated, two peaks of fluorescence are observed. Change in the relative fluorescence intensity of the substrate and product peaks is the parameter measured, reflecting enzyme activity. Capillary electrophoregramms (RDA acquisition files) are analyzed using HTS Well Analyzer software (Caliper Life Sciences). The enzyme activity in each sample is determined as the product to sum ratio (PSR):P/(S+P), where P is the peak height of the product peptide and S is the peak height of the substrate peptide. For each compound, enzyme activity is measured at various concentrations (12 concentrations of compound spaced by 3× dilution intervals). Negative control samples (0%-inhibition in the absence of inhibitor) and positive control samples (100%-inhibition, in the presence of 20 mM EDTA) are assembled in replicates of four and are used to calculate %-inhibition values for each compound at each concentration. Percent inhibition (Pinh) is determined using following equation: Pinh=(PSR0%−PSRinh)/(PSR0%−PSR100%)*100, where PSRinh is the product sum ratio in the presence of inhibitor, PSR0% is the average product sum ration in the absence of inhibitor and PSR100% is the average product sum ratio in 100%-inhibition control samples.
(§11) The IC50 values of inhibitors are determined by fitting the inhibition curves (Pinh versus inhibitor concentration) by 4 parameter sigmoidal dose-response model using XLfit 4 software (MDS).

HDAC2 [4] = target: T1, HDAC2; assay: HDAC2 enzymatic inhibition assay in SH-SY5Y cell lysate (HDAC-Glo 2); format: cell-based; conditions: SH-SY5Y cells, five hours incubation
Description: SH-SY5Y cells (Sigma) were cultured in Eagle's Modified Essential Medium supplemented with 10% fetal bovine serum and pen/strep. Twenty-four hours prior to compound dosing 20 uL of cells were plated in white 384 well plates at a density of 1,500 cells/well. Compounds were serially diluted in neat DMSO and then diluted 1:100 v/v into media without FBS and mixed. Media was removed from the plated cells and the diluted compounds in serum free media (1% v/v final DMSO) were added and incubated at 37.0 for five hours. Ten uL of HDAC-Glo 2 reagent with 0.1% Triton X-100 was then added, the plate was mixed and allowed to develop at room temperature for 100 minutes. Plates were then read with a Spectramax LMax luminometer employing a 0.4s integration time. Dose response curves were constructed with normalized data where CI-994 at 100 uM was defined as 100% inhibition and DMSO alone as 0% inhibition.

HDAC1 = HDAC1 (Homo sapiens (Human), UniProt Q13547); assay: HDAC1 enzymatic assay (deacetylation of peptide substrate, Caliper LabChip); format: biochemical; conditions: reaction time 17 hours, 25° C.
Description: as §8, §9, §10, §11

HDAC1, sequence (Q13547 whole entry): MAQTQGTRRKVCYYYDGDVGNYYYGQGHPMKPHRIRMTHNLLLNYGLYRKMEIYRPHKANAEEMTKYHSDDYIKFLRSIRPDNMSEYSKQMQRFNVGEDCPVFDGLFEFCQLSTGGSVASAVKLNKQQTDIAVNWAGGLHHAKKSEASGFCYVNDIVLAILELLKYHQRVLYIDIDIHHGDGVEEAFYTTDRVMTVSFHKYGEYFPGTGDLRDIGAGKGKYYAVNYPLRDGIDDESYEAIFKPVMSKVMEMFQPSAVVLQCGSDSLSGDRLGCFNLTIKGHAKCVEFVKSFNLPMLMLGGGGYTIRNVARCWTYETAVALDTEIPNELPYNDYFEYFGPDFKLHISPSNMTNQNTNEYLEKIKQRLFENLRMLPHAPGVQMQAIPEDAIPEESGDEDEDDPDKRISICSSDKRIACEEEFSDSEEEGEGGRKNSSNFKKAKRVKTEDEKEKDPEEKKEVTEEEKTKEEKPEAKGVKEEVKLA
T1 sequence (Q92769 whole entry): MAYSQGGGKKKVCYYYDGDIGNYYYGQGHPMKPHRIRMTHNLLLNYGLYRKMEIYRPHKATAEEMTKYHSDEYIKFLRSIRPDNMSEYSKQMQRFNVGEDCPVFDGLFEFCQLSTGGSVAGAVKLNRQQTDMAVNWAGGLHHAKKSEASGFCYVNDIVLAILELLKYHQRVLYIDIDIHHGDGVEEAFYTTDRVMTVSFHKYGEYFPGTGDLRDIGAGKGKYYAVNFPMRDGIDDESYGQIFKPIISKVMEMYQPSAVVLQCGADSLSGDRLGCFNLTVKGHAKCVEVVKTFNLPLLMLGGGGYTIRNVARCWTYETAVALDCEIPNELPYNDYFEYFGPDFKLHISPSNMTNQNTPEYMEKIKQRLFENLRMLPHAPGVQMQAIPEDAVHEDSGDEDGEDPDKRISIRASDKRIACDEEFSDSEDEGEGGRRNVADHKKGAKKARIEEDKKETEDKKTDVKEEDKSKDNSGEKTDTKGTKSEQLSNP

Row | Myeloid % control remaining @ 10 uM dose [1] | Erythroid % control remaining @ 10 uM dose [2] | IC50 (HDAC2 [3]) | IC50 (HDAC2 [4]) | IC50 (HDAC1) | Structure (SMILES) | inhibitory effects as positive control for toxicity ([2]; erythroid and myeloid progenitor assays, 1.0, 0.1 and 0.01 μg/mL)
1 | 34% | 22% |  |  |  | CCn1cc2c(n1)CN(C(=O)Nc1nc(-c3ccc(F)cc3)ccc1N)C2 [Comparator 1, reference compound] | 
2 | 103% | 45% |  |  |  | Cc1nc2c(s1)CN(C(=O)Nc1nc(-c3ccc(F)cc3)ccc1N)C2 [Comparator 2, reference compound] | 
3 | 9% | 18% |  |  |  | COCCn1cc2c(n1)CN(C(=O)Nc1nc(-c3cccs3)ccc1N)C2 [Comparator 3, reference compound] | 
4 | 39% | 28% |  |  |  | COCCn1cc2c(n1)CN(C(=O)Nc1nc(-c3ccc(F)cc3)ccc1N)C2 [Comparator 4, reference compound] | 
5 | 66.1% | 25.7% |  |  |  | Cc1cc2c(cn1)CN(C(=O)Nc1nc(-c3ccc(F)cc3)ccc1N)C2 [Comparator 5, reference compound] | 
6 | 58.9% | 22.9% |  |  |  | COCc1cc2c(cn1)CN(C(=O)Nc1nc(-c3ccc(F)cc3)ccc1N)C2 [Comparator 6, reference compound] | 
7 | 82% | 35% |  |  |  | Nc1ccc(-c2ccc(F)cc2)nc1NC(=O)N1Cc2cc(CN3CC(F)C3)cnc2C1 [Comparator 7, reference compound] | 
8 | 70% | 33% |  |  |  | COCc1ccc2c(n1)CN(C(=O)Nc1nc(-c3ccc(F)cc3)ccc1N)C2 [Comparator 8, reference compound] | 
9 | 79% | 60% |  |  |  | CCc1ncc2c(n1)CN(C(=O)Nc1nc(-c3ccc(F)cc3)ccc1N)C2 [Comparator 9, reference compound] | 
10 | 100% | 53% | 100 to 500 nM | 100 to 1000 nM | 100 to 500 nM | Cc1cc2c(cn1)CN(C(=O)Nc1nc(-c3ccc(F)cc3F)ccc1N)C2 [Compound 1] | 
11 | 92% | 62% | 500 to 5000 nM | 1000 to 1500 nM | 100 to 500 nM | COCc1ccc2c(n1)CN(C(=O)Nc1nc(-c3ccc(F)cc3F)ccc1N)C2 [Compound 2] | 
12 | 109% | 89% | 500 to 5000 nM | 100 to 1000 nM | 100 to 500 nM | Cc1nc2c(s1)CN(C(=O)Nc1nc(-c3ccc(F)cc3F)ccc1N)C2 [Compound 3] | 
13 | 102% | 62% | 500 to 5000 nM | 1000 to 1500 nM | 100 to 500 nM | Nc1ccc(-c2ccc(F)cc2F)nc1NC(=O)N1Cc2cnc(CN3CC(F)C3)cc2C1 [Compound 4] | 
14 |  |  |  |  |  | O=c1[nH]cc(F)c(=O)[nH]1 [Compound 5-FU, 5-Fluorouracil, reference compound] | exactly as expected
15 | 82% | 69% | 500 to 5000 nM | 1000 to 1500 nM | 500 to 5000 nM | Cc1ncc2c(n1)CN(C(=O)Nc1nc(-c3ccc(F)cc3F)ccc1N)C2 [Compound 5] | 
16 | 82% | 69% | 500 to 5000 nM | > 1500 nM | 500 to 5000 nM | COCCn1cc2c(n1)CN(C(=O)Nc1nc(-c3ccc(Cl)s3)ccc1N)C2 [Compound 6] | 
17 | 105% | 69% | 500 to 5000 nM | 100 to 1000 nM | 100 to 500 nM | CCc1ncc2c(n1)CN(C(=O)Nc1nc(-c3ccc(F)cc3F)ccc1N)C2 [Compound 7] | 
18 | 75% | 72% | 500 to 5000 nM | 100 to 1000 nM | 100 to 500 nM | COCCn1cc2c(n1)CN(C(=O)Nc1nc(-c3ccccc3F)ccc1N)C2 [Compound 8] | 
19 | 102% | 87% | 500 to 5000 nM | 100 to 1000 nM | 100 to 500 nM | COCc1cc2c(cn1)CN(C(=O)Nc1nc(-c3ccccc3F)ccc1N)C2 [Compound 9] | 
20 | 77% | 38% | 100 to 500 nM | 100 to 1000 nM | 100 to 500 nM | CCn1cc2c(n1)CN(C(=O)Nc1nc(-c3ccc(F)cc3F)ccc1N)C2 [Compound 10] | 
